Patent US20240318218A1 (The Trustees of Columbia University in The City of New York, priority 2023, published 2024)

Biological target: T1, human NADK (ATP-NAD+ kinase), recombinant, C-terminal 6x-histidine tag (Homo sapiens, UniProt O95544)
T1 construct: 6x-histidine (C); made in house; host or cells: E. coli BL21(DE3)
T1 sequence (O95544 1-446): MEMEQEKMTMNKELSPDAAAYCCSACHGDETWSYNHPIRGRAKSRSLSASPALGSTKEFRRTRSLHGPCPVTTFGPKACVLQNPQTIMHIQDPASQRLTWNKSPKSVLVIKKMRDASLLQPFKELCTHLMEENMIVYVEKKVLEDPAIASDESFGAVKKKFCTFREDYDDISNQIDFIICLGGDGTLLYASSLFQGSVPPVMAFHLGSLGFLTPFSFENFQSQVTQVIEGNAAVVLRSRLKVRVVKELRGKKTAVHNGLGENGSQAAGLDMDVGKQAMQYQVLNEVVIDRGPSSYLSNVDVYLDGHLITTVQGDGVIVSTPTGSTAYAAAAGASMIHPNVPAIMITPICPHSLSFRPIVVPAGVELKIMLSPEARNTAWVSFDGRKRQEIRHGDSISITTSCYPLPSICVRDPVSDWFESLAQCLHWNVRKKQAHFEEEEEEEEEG
Assay: Affinity of human NADK for NAD+ compared with pigeon, duck and cat NADK
Format: biochemical
Settings: human NADK relative to pigeon
Experimental: Recombinantly-expressed NADKs were explored for their reversible activities. It was hypothesized that the reversibility of the pigeon enzyme would enable compensation for the high picolinic acid […] (PC) activity present in pigeon livers, which inhibits NAD^+ biosynthesis from dietary tryptophan. […] It was determined that human NADK has an affinity for NAD^+ that is about 600 times higher than the pigeon, duck and cat isoforms. Without wishing to be bound by theory, NAD^+ serves as a product inhibitor for the reverse human NADK activity, which accounts for the observed irreversible behavior. While each of the NADKs explored were “reversible,” the reverse activity of the human enzyme is impeded via product inhibition. […]
Referring now to FIGS. 3A-3B, initial rate kinetic experiments were performed with pigeon, duck, cat, and human NADK enzymes in both the forward and reverse directions. […] In FIG. 3B, the production of ATP was detected in a coupled reaction with firefly luciferase where ATP was converted to light, the relative luminescence (RLU) was monitored, and a standard curve was used to calculate the ATP concentration.

affinity for NAD^+, times higher than the pigeon, duck and cat isoforms: about 600 times
SMILES: NC(=O)c1ccc[n+]([C@@H]2O[C@H](COP(=O)([O-])OP(=O)(O)OC[C@H]3O[C@@H](n4cnc5c(N)ncnc54)[C@H](O)[C@@H]3O)[C@@H](O)[C@H]2O)c1 [NAD]
